In publication PMC6979384, “Characterization of the plant homeodomain (PHD) reader family for their histone tail interactions” (Epigenetics & Chromatin, 2020):

Columns and labels:
Experiment in all cases: Histone peptide microarray
Format in all cases: binding, human
AIRE (PP) = settings: GST-tagged AIRE (PP); sheet Array Heatmap; each array performed twice, total n = 4
From the text: (§1) To more comprehensively define the histone interactions of the 31 PHD readers identified from the domain microarray analyses, we probed each on an alternate microarray platform containing a library of 293 synthetic histone peptides with single or combinatorial PTMs (Additional file 2: Figure S4 and Additional file 3: Table S2).
(§2) The 31 GST-tagged PHD readers identified in the PHD finger domain array were expressed and purified as previously. Histone peptide arrays and peptide pulldown assays were conducted as recently described (specifically, the optimized protocol from Petell et al. for the former).
(§3) Supplementary file 13072_2020_328_MOESM3_ESM.xlsx: Additional file 3: Table S2. […] Excel Tab Peptide List is a compiled list of the entire 293 histone peptide library with amino acid sequence ranges. […] Each number corresponds to the peptide number designated in Peptide List. Excel Tab Average Signals is a compiled set of binding data: chromatin reader at 0.5 μM vs. entire 293 peptide library. Data is presented as the average and standard deviation of 4 replicates. The average signals are colored to indicate signal intensity with green being strong and white being weak/low. […] Key: red= stronger relative binding; blue = weaker relative binding. Excel Tab Array info summary is a table summarizing the domains, sequence coverage, array signal range, and noise for each of the GST-tagged readers assayed on the peptide microarrays.

BAZ2B = settings: GST-tagged BAZ2B; sheet Array Heatmap; each array performed twice, total n = 4
From the text: as §1, §2, §3

BPTF (PB) = settings: GST-tagged BPTF (PB = PHD + Bromodomain); sheet Array Heatmap; each array performed twice, total n = 4
From the text: as §1, §2, §3

CHD4 (PPCC) = settings: GST-tagged CHD4 (PPCC = Dual PHD + Dual Chromodomain); sheet Array Heatmap; each array performed twice, total n = 4
From the text: as §1, §2, §3

CHD5 (PCC) = settings: GST-tagged CHD5 (PCC = PHD + Dual Chromodomain); sheet Array Heatmap; each array performed twice, total n = 4
From the text: as §1, §2, §3

CHD5 (PPCC) = settings: GST-tagged CHD5 (PPCC = Dual PHD + Dual Chromodomain); sheet Array Heatmap; each array performed twice, total n = 4
From the text: as §1, §2, §3

DIDO1 = settings: GST-tagged DIDO1; sheet Array Heatmap; each array performed twice, total n = 4
From the text: as §1, §2, §3

DPF2 (PPC2W2) = settings: GST-tagged DPF2 (PPC2W2 = Dual PHD + C2W2-type Zn-finger); sheet Array Heatmap; each array performed twice, total n = 4
From the text: as §1, §2, §3

ING1 = settings: GST-tagged ING1; sheet Array Heatmap; each array performed twice, total n = 4
From the text: as §1, §2, §3

ING2 = settings: GST-tagged ING2; sheet Array Heatmap; each array performed twice, total n = 4
From the text: as §1, §2, §3

ING3 = settings: GST-tagged ING3; sheet Array Heatmap; each array performed twice, total n = 4
From the text: as §1, §2, §3

ING4 = settings: GST-tagged ING4; sheet Array Heatmap; each array performed twice, total n = 4
From the text: as §1, §2, §3

ING5 = settings: GST-tagged ING5; sheet Array Heatmap; each array performed twice, total n = 4
From the text: as §1, §2, §3

KDM4C (TTP) = settings: GST-tagged KDM4C (TTP = Tandem Tudor domain + PHD); sheet Array Heatmap; each array performed twice, total n = 4
From the text: as §1, §2, §3

KDM5A (1) = settings: GST-tagged KDM5A (1); sheet Array Heatmap; each array performed twice, total n = 4
From the text: as §1, §2, §3

KDM5A (3) = settings: GST-tagged KDM5A (3); sheet Array Heatmap; each array performed twice, total n = 4
From the text: as §1, §2, §3

KDM5B (1) = settings: GST-tagged KDM5B (1); sheet Array Heatmap; each array performed twice, total n = 4
From the text: as §1, §2, §3

KDM5B (3) = settings: GST-tagged KDM5B (3); sheet Array Heatmap; each array performed twice, total n = 4
From the text: as §1, §2, §3

KDM7A = settings: GST-tagged KDM7A; sheet Array Heatmap; each array performed twice, total n = 4
From the text: as §1, §2, §3

MLL5 = settings: GST-tagged MLL5; sheet Array Heatmap; each array performed twice, total n = 4
From the text: as §1, §2, §3

MORC3 (CW) = settings: GST-tagged MORC3 (CW = CW-type Zn-finger); sheet Array Heatmap; each array performed twice, total n = 4
From the text: as §1, §2, §3

PHF13 = settings: GST-tagged PHF13; sheet Array Heatmap; each array performed twice, total n = 4
From the text: as §1, §2, §3

PHF21A = settings: GST-tagged PHF21A; sheet Array Heatmap; each array performed twice, total n = 4
From the text: as §1, §2, §3

PHF23 = settings: GST-tagged PHF23; sheet Array Heatmap; each array performed twice, total n = 4
From the text: as §1, §2, §3

PHF2 = settings: GST-tagged PHF2; sheet Array Heatmap; each array performed twice, total n = 4
From the text: as §1, §2, §3

PHF8 = settings: GST-tagged PHF8; sheet Array Heatmap; each array performed twice, total n = 4
From the text: as §1, §2, §3

PHRF1 (RP) = settings: GST-tagged PHRF1 (RP); sheet Array Heatmap; each array performed twice, total n = 4
From the text: as §1, §2, §3

RAG2 = settings: GST-tagged RAG2; sheet Array Heatmap; each array performed twice, total n = 4
From the text: as §1, §2, §3

TAF3 = settings: GST-tagged TAF3; sheet Array Heatmap; each array performed twice, total n = 4
From the text: as §1, §2, §3

TRIM66 (PB) = settings: GST-tagged TRIM66 (PB = PHD + Bromodomain); sheet Array Heatmap; each array performed twice, total n = 4
From the text: as §1, §2, §3

SP140L = settings: GST-tagged SP140L; sheet Array Heatmap; each array performed twice, total n = 4
From the text: as §1, §2, §3

Row | Substance | Array Heatmap signal (histone peptide microarray) (AIRE (PP)) | Array Heatmap signal (histone peptide microarray) (BAZ2B) | Array Heatmap signal (histone peptide microarray) (BPTF (PB)) | Array Heatmap signal (histone peptide microarray) (CHD4 (PPCC)) | Array Heatmap signal (histone peptide microarray) (CHD5 (PCC)) | Array Heatmap signal (histone peptide microarray) (DIDO1) | Array Heatmap signal (histone peptide microarray) (DPF2 (PPC2W2)) | Array Heatmap signal (histone peptide microarray) (ING1) | Array Heatmap signal (histone peptide microarray) (ING2) | Array Heatmap signal (histone peptide microarray) (ING3) | Array Heatmap signal (histone peptide microarray) (ING4) | Array Heatmap signal (histone peptide microarray) (ING5) | Array Heatmap signal (histone peptide microarray) (KDM4C (TTP)) | Array Heatmap signal (histone peptide microarray) (KDM5A (1)) | Array Heatmap signal (histone peptide microarray) (KDM5A (3)) | Array Heatmap signal (histone peptide microarray) (KDM5B (1)) | Array Heatmap signal (histone peptide microarray) (KDM5B (3)) | Array Heatmap signal (histone peptide microarray) (KDM7A) | Array Heatmap signal (histone peptide microarray) (MLL5) | Array Heatmap signal (histone peptide microarray) (MORC3 (CW)) | further results
1 | H3K4me1 + K9ac + K14ac + K18ac: H3 1-20 | 0.4902 | 0.6125 | 0.3783 | 0.5742 | 0.872 | 0.6756 | 0.8362 | 0.5616 | 0.6379 | 0.5358 | 0.4842 | 0.3909 | 0.5283 | 0.5061 | 0.582 | 0.6974 | 0.5937 | 0.3735 | 0.5474 | 0.6558 | Array Heatmap signal (histone peptide microarray) (CHD5 (PPCC)): 0.5902; Array Heatmap signal (histone peptide microarray) (PHF13): 0.6456; Array Heatmap signal (histone peptide microarray) (PHF21A): 0.4842; Array Heatmap signal (histone peptide microarray) (PHF23): 0.5995; Array Heatmap signal (histone peptide microarray) (PHF2): 0.5275; Array Heatmap signal (histone peptide microarray) (PHF8): 0.4393; Array Heatmap signal (histone peptide microarray) (PHRF1 (RP)): 0.6901; Array Heatmap signal (histone peptide microarray) (RAG2): 0.2881; Array Heatmap signal (histone peptide microarray) (TAF3): 0.2961; Array Heatmap signal (histone peptide microarray) (TRIM66 (PB)): 0.6139
2 | H3K4me3 + S10p: H3 1-20 | 0.4865 | 0.4888 | 0.4763 | 0.5979 | 0.823 | 0.8088 | 0.6728 | 0.7399 | 0.7902 | 0.5974 | 0.5113 | 0.452 | 0.6416 | 0.4961 | 0.9343 | 0.7367 | 0.6326 | 0.6944 | 0.8699 | 0.8974 | Array Heatmap signal (histone peptide microarray) (PHF13): 0.6968; Array Heatmap signal (histone peptide microarray) (PHF21A): 0.4924; Array Heatmap signal (histone peptide microarray) (PHF23): 0.7051; Array Heatmap signal (histone peptide microarray) (PHF2): 0.6926; Array Heatmap signal (histone peptide microarray) (PHF8): 0.7298; Array Heatmap signal (histone peptide microarray) (PHRF1 (RP)): 0.4961; Array Heatmap signal (histone peptide microarray) (RAG2): 0.5128; Array Heatmap signal (histone peptide microarray) (SP140L): 0.3516; Array Heatmap signal (histone peptide microarray) (TAF3): 0.4497; Array Heatmap signal (histone peptide microarray) (TRIM66 (PB)): 0.6387
